Experimental data as given in patent US9073880B2, “2-(2-phenylethenyl) 1,3-benzodiazepine derivatives useful for the treatment of cancer” (Yissum Research Development Company of the Hebrew …, priority 2010, dated 2015).

Tested on: human melanoma A375 cells
Assay: Cell proliferation, A375 (Example 4)
Assay type: cell-based
Conditions: A-375, compound in 2-hydroxypropyl-β-cyclodextrin
Method: Human ovary cancer A2780 cells lines were seeded at a density of 5000 cells/well, human melanoma A375 cells were plated at a density of 2,500 cells/well, human colon carcinoma HCT15 cells were plated at a density of 3,000 cells/well, human prostate carcinoma PC3 cells were plated at a density of 1,500 cells/well, human breast carcinoma MCF7 cells were plated at a density of 5,000 cells/well, human breast carcinoma MDA MB 468 cells were plated at a density of 6,000 cells/well, human myeloma U266, RPMI8226 and CAG cells were plated at a density of 10,000 cells/well. All cells were plated in 96-well plates in 90 μl growth medium containing 10% FCS, 100 units/ml penicillin and 100 μg/ml streptomycin. Compound 3 was added a day later in […] of 1% DMSO in DDW to obtain final concentrations of 0, 0.1, 0.3, 1, 3, and 10 μM. The final concentration of DMSO (0.1% DMSO) was kept constant in all samples. […] The optical density values were read at 630 nm in ELISA plate reader. Non-adhered cells were exposed to WST-1 reagent for 5 hours following 72 hours treatment with the inhibitors, and optical density values were read at 630 nm in ELISA plate reader. The data was analyzed in Microsoft Excel, using the vehicle control as 100% proliferation. […]

SMILES | IC50 [nM]
O=c1c(O)cc2cnc(/C=C/c3cc(O)c(O)c(Br)c3)sc-2c1O [Compound 3] | 500
O=c1c(O)cc2cnc(/C=C/c3ccc(O)c(O)c3Br)sc-2c1O [Compound 5] | 400
